Measurements: patent publication US7767842B2, “Class of γδ T cells activators and use thereof” (Innate Pharma SA, priority 2002, dated 2010)
Where two headings read alike, the source gives them in different places. Blank lines part the entries; values can stand above or below the compound they belong to.

Columns and labels:
[1] = tested on: primary polyclonal human Vγ9Vδ2 T cells; test: Cytokine release assay: TNFα release from γδ T cells; format: cell-based
Method: Cells (primary polyclonal human Vγ9Vδ2 T cells which have been expanded in vitro and stored frozen at day 12-15 of expansion) are thawed and rinsed twice and centrifuged. Upon elimination of supernatant and resuspension of cells, the cells are incubated for 24 h at 37° C. in the presence of IL2 100 IU/ml (final concentration). The cells are washed and centrifuged, following which the supernatant is eliminated and the cells are resuspended and adjusted to the adequate final concentration. The cells are added to the wells of a 96-well plate.
To one row of wells is added a standard dilution series of […] (BrHPP). Compounds to be tested, in this case (E)-4-hydroxy-3-methyl-2-butenyl pyrophosphate (HDMAPP) and the N-HDMAPP compound of the invention are added to experimental wells, after several dilutions.
Full plates are incubated 24 hours at 37° C. for stimulation of the γδ cells with the test compound and reference compounds, in this case N-HDMAPP, BrHPP and HDMAPP, as further described below. After this time, 100 μl of culture supernatant is taken for TNFα dosage. Measurement of the released TNFα dosage is performed as described by the manufacturer's instruction in the TNFα enzyme immunoassay kit (ref. 11121, Immunotech—Beckman Coulter). OD at 405 nm is read, the OD being proportional to the concentration of released TNFα in the culture supernatant. The data are processed with the Excel software to compare concentration of test compound versus concentration of TNFα and for the calculation of the EC50 for each test compound.
The bioactivity of the compound N-HDMAPP was assessed using a TNFα release assay as described above. Compounds BrHPP and HDMAPP were included for purpose of comparison. […] As will be appreciated, any other suitable assays such as cell amplification may be used in assessing compounds.

γδ T cells = details: at best; Wilhelm et al., 2003; cited from earlier work
[2] = 24 hours stimulation at 37° C., TNFα enzyme immunoassay, relative screening test, read-out: in vitro EC50, TNFα release

- EC50 ([1]; Homo sapiens, T-cell, prior assays, calibrated cells, read-out: EC50 in prior assays with calibrated cells using a BrHPP-standard composition): ~15 nM
Compound: CC(O)(CBr)CCOP(=O)(O)OP(=O)(O)O (stereo not drawn) [BrHPP, 3-(bromomethyl)-3-butanol-1-yl-diphosphate]

Compound: C/C(=C\COP(=O)(O)OP(=O)(O)O)CO [HDMAPP, (E)-4-hydroxy-3-methyl-2-butenyl pyrophosphate]
- EC50 [1, 2]: 2.1 nM

Compound: NCCC(O)(P(=O)(O)O)P(=O)(O)O [pamidronate]
- increase in γδ T cell count (γδ T cells): ≤ 2 fold

Compound: (E)-4-hydroxy-3-methylbut-2-enyl pyrophosphoramidate [N-HDMAPP]
- EC50 [1, 2]: 0.63 nM
- maximum TNFα release ([1]; maximum level, FIG. 1): over 1800 pg/ml
- increased potency over the most potent compounds tested so far ([1]; ratio of EC50, TNFα release): 3-4
